Experimental data from patent US8728508B2, “Hydrophilic coating and a method for the preparation thereof” (Coloplast A/S, priority 2002, dated 2014).
Values after ≈ are worked out from the molar mass of the structure shown. Where a name gives a salt, the structure may show the parent alone.

Experiments:
[1] = cited from earlier work
[2] = Hansen solubility parameter, cited from earlier work; for Delta D: dispersion; for Delta H: hydrogen bonding; for Delta P: polar
[3] = Vigorous finger rubbing under running water of UV cured coated polyurethane catheters (coating stable / lubricious); format: physicochemical
Procedure: The coating was applied to polyurethane catheters by dipping the catheters in the polymer solution at room temperature and withdrawing them at a speed of 21 mm/s. The catheters were dried for 30 minutes at 70° C. and then UV cured for 150 seconds at 40-50° C. The UV cured catheters were immediately rubbed vigorously between the fingers under running water in order to evaluate whether the coating was stable and lubricious. They were then stored in water for at least 72 hours, and vigorous finger rubbing under running water was repeated. The catheters were then scored “stable” and “lubricious” only if the coating was still stable and lubricious at this time.

[4] = 10% triethyl citrate, 79.0% solvent, 5% NMP, 6% PVP K-90, finger rubbing after at least 72 hours storage in water
[5] = 8.7% plasticiser, 5% PVP K-90, 82% ethanol, 4.35% NMP, polyurethane catheters, finger rubbing under running water after at least 72 hours storage in water

Row | Structure (SMILES) | Solubility in water (g/L) [1] | Delta D [2] | Delta H [2] | Delta P [2] | Coating stable? [3, 4] | Coating stable? [3, 5] | Solubility in water [1] [mg/mL]
1 | CC(=O)N1CCOCC1 [N-Acetyl morpholine] | Miscible | 18.3 | 7.8 | 5.3 |  |  | 
2 | CCOP(=O)(OCC)OCC [Triethyl phosphate] |  | 16.7 | 9.2 | 11.4 |  |  | 
3 | CS(C)(=O)=O [Dimethyl sulfone] | Miscible | 19 | 12.3 | 19.4 |  |  | 
4 | c1ccc2ncccc2c1 [Quinoline] |  | 19.4 | 7.6 | 7 |  |  | 
5 | C1COCO1 [1,3-dioxolane] |  |  |  |  | stable |  | 
6 | OCC(O)CO [glycerol] |  |  |  |  |  | not stable | 
7 | CCO [Ethanol] |  |  |  |  | stable |  | 
8 | CC1=CC(=O)CC(C)(C)C1 [Isophorone] |  | 16.6 | 7.4 | 8.2 |  |  | 
9 | CC1COC(=O)O1 (stereo not shown) [Propylene carbonate] |  | 20 | 4.1 | 18 |  |  | 190 (≈ 1860 mM)
10 | CCOC(=O)CC(CC(=O)OCC)(OC(C)=O)C(=O)OCC [Acetyl triethyl citrate] |  | 16.6 | 8.6 | 3.5 |  | stable | 
11 | COC(=O)c1ccccc1O [Methyl salicylate] |  | 16 | 12.3 | 8 |  |  | 
12 | CN(C)C=O [dimethyl formamide] |  |  |  |  | stable |  | 
13 | CCOC(=O)CC(O)(CC(=O)OCC)C(=O)OCC [Triethyl citrate] |  |  |  |  |  | stable | 
14 | CC(=O)OCC(COC(C)=O)OC(C)=O [Glycerol triacetate] |  | 16.5 | 9.1 | 4.5 |  | stable | 71
15 | CC(=O)OCC(CO)OC(C)=O (stereo not shown) [Glycerol diacetate] | Miscible | 16.4 | 14.2 | 8.9 |  | stable | 
